In PubChem BioAssay AID248 (DTP/NCI, 2004):
Several values for one entry are separate records, joined by “and”; a condition that tells them apart may be missing. Equal entries are not always repeated. Inconclusive results and toxic doses are left out. Cut-off read from the data, not from the text of the source: active = T/C of 150% or more; inactive = T/C below 125%.

Tested on: L1210 leukemia ip in BDF1 mice, survival T/C
Test: NCI In Vivo Anticancer Drug Screen. Data for tumor model L1210 Leukemia (intraperitoneal) in B6D2F1 (BDF1) mice
Conditions: endpoint: mean survival time, higher = longer survival
Outline: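 Read-out is survival time, reported as the treated-group measurement over the vehicle-control measurement.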

[1] = dose: 25.0 mg/kg/injection, schedule: Q01DX009 (ip), vehicle: Klucel (hydroxypropylcellulose) (HPC)
[2] = dose: 50.0 mg/kg/injection, schedule: Q01DX009 (ip), vehicle: Klucel (hydroxypropylcellulose) (HPC)
[3] = dose: 100.0 mg/kg/injection, schedule: Q01DX009 (ip), vehicle: Klucel (hydroxypropylcellulose) (HPC)
[4] = dose: 100.0 mg/kg/injection, schedule: Q01DX009 (ip), vehicle: other
[5] = dose: 200.0 mg/kg/injection, schedule: Q01DX009 (ip), vehicle: other
[6] = dose: 400.0 mg/kg/injection, schedule: Q01DX009 (ip), vehicle: other
[7] = dose: 100.0 mg/kg/injection, schedule: Q04DX003 (ip), vehicle: Klucel (hydroxypropylcellulose) (HPC)
[8] = dose: 200.0 mg/kg/injection, schedule: Q01DX009 (ip), vehicle: Klucel (hydroxypropylcellulose) (HPC)
[9] = dose: 200.0 mg/kg/injection, schedule: Q04DX003 (ip), vehicle: Klucel (hydroxypropylcellulose) (HPC)
[10] = dose: 400.0 mg/kg/injection, schedule: Q01DX009 (ip), vehicle: Klucel (hydroxypropylcellulose) (HPC)
[11] = dose: 400.0 mg/kg/injection, schedule: Q04DX003 (ip), vehicle: Klucel (hydroxypropylcellulose) (HPC)
[12] = dose: 100.0 mg/kg/injection, schedule: Q01DX001 (ip), vehicle: saline
[13] = dose: 200.0 mg/kg/injection, schedule: Q01DX001 (ip), vehicle: saline
[14] = dose: 100.0 mg/kg/injection, schedule: Q01DX009 (ip), vehicle: saline
[15] = dose: 100.0 mg/kg/injection, schedule: Q04DX003 (ip), vehicle: saline
[16] = dose: 200.0 mg/kg/injection, schedule: Q01DX009 (ip), vehicle: saline
[17] = dose: 200.0 mg/kg/injection, schedule: Q04DX003 (ip), vehicle: saline
[18] = dose: 400.0 mg/kg/injection, schedule: Q04DX003 (ip), vehicle: saline
[19] = dose: 100.0 mg/kg/injection, schedule: Q01DX009 (ip), vehicle: saline with Tween-80
[20] = dose: 200.0 mg/kg/injection, schedule: Q01DX009 (ip), vehicle: saline with Tween-80
[21] = dose: 400.0 mg/kg/injection, schedule: Q01DX009 (ip), vehicle: saline with Tween-80
[22] = dose: 100.0 mg/kg/injection, schedule: Q04DX003 (ip), vehicle: saline with Tween-80

Measured: T/C

O=C(Nc1cc(C(F)(F)F)ccc1Cl)Oc1ccc(Cl)cc1Cc1ccccc1
inactive: [1] 93 % of control | [2] 88 % of control | [3] 101 % of control and 86 % of control and 88 % of control

Brc1c2ccccc2cc2ccccc12
inactive: dose: 100.0 mg/kg/injection, schedule: Q04DX002 (ip), vehicle: gum acacia 101 % of control | dose: 200.0 mg/kg/injection, schedule: Q04DX002 (ip), vehicle: gum acacia 93 % of control | dose: 400.0 mg/kg/injection, schedule: Q04DX002 (ip), vehicle: gum acacia 96 % of control

O=[N+]([O-])c1ccc2c(c1)CCCC2
inactive: [4] 98 % of control | dose: 100.0 mg/kg/injection, schedule: Q04DX003 (ip), vehicle: other 105 % of control | [5] 104 % of control | dose: 200.0 mg/kg/injection, schedule: Q04DX003 (ip), vehicle: other 96 % of control | [6] 116 % of control | dose: 400.0 mg/kg/injection, schedule: Q04DX003 (ip), vehicle: other 92 % of control

O=C(O)CN1C(=O)CN=C(c2ccccn2)c2cc(Cl)ccc21
inactive: [3] 99 % of control | [7] 100 % of control | [8] 100 % of control | [9] 100 % of control | [10] 97 % of control | [11] 97 % of control

CCOc1ccc(NC(=O)OCCN2CCN(CCc3ccccc3)C(C)C2)cc1 (stereo unspecified)
inactive: [12] 98 % of control | [13] 95 % of control

Cc1ccc(NC(=O)Oc2cc(C)ccc2C(C)C)cc1
inactive: [3] 113 % of control | [8] 94 % of control | [10] 97 % of control

O=[N+]([O-])CC(O)c1ccc2ccccc2n1 (stereo unspecified)
inactive: dose: 50.0 mg/kg/injection, schedule: Q01DX009 (ip), vehicle: water 100 % of control | [14] 91 % of control | dose: 100.0 mg/kg/injection, schedule: Q01DX009 (ip), vehicle: water 100 % of control | [15] 93 % of control | [16] 94 % of control | dose: 200.0 mg/kg/injection, schedule: Q01DX009 (ip), vehicle: water 87 % of control | [17] 90 % of control

ClCCN1CCN(CCCN2c3ccccc3CCc3ccccc32)CC1
inactive: dose: 12.5 mg/kg/injection, schedule: Q04DX003 (ip), vehicle: saline 106 % of control | dose: 25.0 mg/kg/injection, schedule: Q04DX003 (ip), vehicle: saline 94 % of control | dose: 50.0 mg/kg/injection, schedule: Q04DX003 (ip), vehicle: saline 114 % of control | [15] 102 % of control and 110 % of control | dose: 150.0 mg/kg/injection, schedule: Q04DX003 (ip), vehicle: saline 93 % of control | dose: 225.0 mg/kg/injection, schedule: Q04DX003 (ip), vehicle: saline 103 % of control | dose: 335.0 mg/kg/injection, schedule: Q04DX003 (ip), vehicle: saline 93 % of control and 109 % of control | [18] 101 % of control

O=C1OCCN1/N=C\c1ccccc1
inactive: [4] 116 % of control | [5] 98 % of control | [6] 97 % of control

CC(C)CN(CC(=O)N1CC(=O)Nc2ccccc21)CC(C)C
inactive: [14] 94 % of control | [15] 95 % of control | [16] 87 % of control | [17] 95 % of control | [18] 92 % of control

CCOC(=O)CCC(NC(=O)c1ccccc1NC)C(=O)OCC (stereo unspecified)
inactive: [19] 94 % of control | [20] 92 % of control | [21] 101 % of control

O=C(CC(Br)C(=O)c1ccccc1)c1ccccc1 (stereo unspecified)
inactive: [19] 97 % of control | [20] 97 % of control | [21] 94 % of control

CC(=O)N1CC(n2nnc3c(N)ncnc32)CC1CO (stereo unspecified)
inactive: dose: 12.5 mg/kg/injection, schedule: Q04DX002 (ip), vehicle: saline with Tween-80 98 % of control | dose: 25.0 mg/kg/injection, schedule: Q04DX002 (ip), vehicle: saline with Tween-80 102 % of control | dose: 50.0 mg/kg/injection, schedule: Q04DX002 (ip), vehicle: saline with Tween-80 94 % of control

Cc1ccc(NC(=O)c2ccccc2)cc1Cl
inactive: [3] 98 % of control | [7] 106 % of control | [8] 95 % of control | [9] 101 % of control | [10] 96 % of control | [11] 97 % of control

CC1CC(NC(=S)NC(=O)c2ccccc2Cl)CC(C)(C)C1 (stereo unspecified)
inactive: dose: 100.0 mg/kg/injection, schedule: Q04DX002 (ip), vehicle: saline with Tween-80 98 % of control | dose: 200.0 mg/kg/injection, schedule: Q04DX002 (ip), vehicle: saline with Tween-80 113 % of control | dose: 400.0 mg/kg/injection, schedule: Q04DX002 (ip), vehicle: saline with Tween-80 102 % of control

C/C(Cl)=C/C(=O)O
inactive: dose: 25.0 mg/kg/injection, schedule: Q04DX002 (ip), vehicle: saline 106 % of control | dose: 50.0 mg/kg/injection, schedule: Q04DX002 (ip), vehicle: saline 92 % of control | dose: 100.0 mg/kg/injection, schedule: Q01DX001 (ip), vehicle: saline with Tween-80 102 % of control | dose: 100.0 mg/kg/injection, schedule: Q04DX002 (ip), vehicle: saline 92 % of control | dose: 200.0 mg/kg/injection, schedule: Q01DX001 (ip), vehicle: saline with Tween-80 105 % of control | dose: 200.0 mg/kg/injection, schedule: Q04DX002 (ip), vehicle: saline 98 % of control and 102 % of control | dose: 400.0 mg/kg/injection, schedule: Q01DX001 (ip), vehicle: saline with Tween-80 96 % of control

O=C(O)c1[nH]c(=O)[nH]c(=O)c1CN1CCCCC1
inactive: dose: 100.0 mg/kg/injection, schedule: Q01DX Z (ip), vehicle: methylcellulose (MC) 93 % of control | dose: 200.0 mg/kg/injection, schedule: Q01DX Z (ip), vehicle: methylcellulose (MC) 93 % of control

COS(=O)(=O)CCCCCC[N+](C)(C)C
inactive: dose: 50.0 mg/kg/injection, schedule: Q01DX001 (ip), vehicle: saline 93 % of control | [12] 102 % of control | [13] 98 % of control

CSC(Cl)=C(Cl)Cl
inactive: dose: 25.0 mg/kg/injection, schedule: Q04DX003 (ip), vehicle: saline with Tween-80 101 % of control | dose: 50.0 mg/kg/injection, schedule: Q04DX003 (ip), vehicle: saline with Tween-80 101 % of control | [12] 90 % of control | [22] 97 % of control

CCCCCCCCCCCCCCC(=O)[O][Hg][c]1ccccc1
inactive: dose: 75.0 mg/kg/injection, schedule: Q01DX001 (ip), vehicle: steriod suspending solution 100 % of control

O=C(CCN1CC1)Nc1ccccc1
inactive: dose: 3.12 mg/kg/injection, schedule: Q01DX009 (ip), vehicle: Klucel (hydroxypropylcellulose) (HPC) 110 % of control | dose: 6.25 mg/kg/injection, schedule: Q01DX009 (ip), vehicle: Klucel (hydroxypropylcellulose) (HPC) 108 % of control | dose: 12.5 mg/kg/injection, schedule: Q01DX009 (ip), vehicle: Klucel (hydroxypropylcellulose) (HPC) 106 % of control | dose: 12.5 mg/kg/injection, schedule: Q04DX003 (ip), vehicle: Klucel (hydroxypropylcellulose) (HPC) 107 % of control | [1] 106 % of control | dose: 25.0 mg/kg/injection, schedule: Q04DX003 (ip), vehicle: Klucel (hydroxypropylcellulose) (HPC) 91 % of control | [2] 102 % of control | dose: 50.0 mg/kg/injection, schedule: Q04DX003 (ip), vehicle: Klucel (hydroxypropylcellulose) (HPC) 95 % of control | [15] 91 % of control

O=CNc1ccccc1Cc1ccccc1
inactive: [12] 101 % of control | [13] 107 % of control

O=[N+]([O-])c1cc([N+](=O)[O-])c2ccc(Cl)nc2c1O
inactive: [12] 98 % of control | [13] 98 % of control | dose: 400.0 mg/kg/injection, schedule: Q01DX001 (ip), vehicle: saline 96 % of control

COc1ccc(-c2sc(/N=C/c3cccs3)c(C#N)c2C)cc1OC
inactive: [3] 94 % of control | [8] 95 % of control | [10] 97 % of control

Nc1nc2nn(-c3ccccc3)nc2c(=O)[nH]1
inactive: [22] 100 % of control | dose: 200.0 mg/kg/injection, schedule: Q04DX003 (ip), vehicle: saline with Tween-80 93 % of control | dose: 400.0 mg/kg/injection, schedule: Q04DX003 (ip), vehicle: saline with Tween-80 94 % of control
